Activity calls are given as the source filed them.
Tests used:
[1] = Luminescence Cell-Based Dose Confirmation HTS to Identify Activators of 5'UTR Stem-Loop Driven Alpha-Synuclein mRNA Translation in H4 Neuroglioblastoma Cells. [Related pubchem assays: 1829 (Project Summary), 1814 (Primary HTS)]; type: functional
[2] = Luminescence Cell-Based Dose Response HTS to Identify Activators of Luciferase Translation or Activity in H4 […] Cells. [Related pubchem assays: 1829 (Project Summary), 1814 (Primary HTS)]; type: functional
H4 = experiment: Luminescence Cell-Based Dose Response HTS to Identify Activators of 5'UTR Stem-Loop Driven Prion Protein mRNA Translation in H4 Neuroglioblastoma Cells. [Related pubchem assays: 1829 (Project Summary), 1814 (Primary HTS)]; type: functional; conditions: Homo sapiens
[3] = target: Luciferin 4-monooxygenase (Photinus pyralis, UniProt P08659); experiment: firefly luciferase enzyme inhibitors, dose response, biochemical, luminescence (AID 1891)
[4] = Luminescence Cell-Based Dose Confirmation HTS to Identify Inhibitors of Platelet Dense Granule Release. [Related pubchem assays: 1663 (Primary HTS), 1678 (Summary of Project)]; type: functional
HeLa = experiment: HeLa cell cytotoxicity, dose response, cytotoxicity control for MITF activator project, CellTiter-Glo luminescence, cherry-pick samples (AID 540259); type: functional, cell-based; conditions: Homo sapiens
Beta-galactosidase = Beta-galactosidase (Escherichia coli, UniProt Q8VNN2); experiment: PubChem AID 485352; type: functional
[5] = target: T1, Type-1 angiotensin II receptor (Homo sapiens, UniProt P30556); experiment: AT1 receptor antagonists, dose response, selectivity assay for APJ receptor antagonist project, cell-based, uHTS hits (AID 463214); type: functional;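 further: antagonist potency against angiotensin II stimulated AT1 response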
T1 sequence (P30556 whole entry): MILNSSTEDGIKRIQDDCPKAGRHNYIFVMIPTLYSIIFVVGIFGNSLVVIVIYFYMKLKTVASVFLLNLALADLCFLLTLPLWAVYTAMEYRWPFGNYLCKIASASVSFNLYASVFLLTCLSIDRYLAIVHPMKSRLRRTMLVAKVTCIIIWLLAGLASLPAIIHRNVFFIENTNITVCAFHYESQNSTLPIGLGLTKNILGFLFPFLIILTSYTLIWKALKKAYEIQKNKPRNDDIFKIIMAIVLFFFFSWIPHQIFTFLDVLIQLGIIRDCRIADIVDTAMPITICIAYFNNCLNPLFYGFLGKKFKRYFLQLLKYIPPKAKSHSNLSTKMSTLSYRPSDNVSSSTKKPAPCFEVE

CHO = experiment: cytotoxicity in TLR9-MyD88 CHO cells, dose response, cytotoxicity control for TLR9-MyD88 binding inhibitor project, cell-based, luminescence (AID 588339); type: functional, hamster; conditions: Cricetulus griseus;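 further: CHO cells stably coexpressing TLR9 and MyD88 fusions from primary screen; compound exposure lasted 48 hours before viability readout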
INS1 = experiment: beta cell apoptosis inhibitors, cytokine rescue, dose response, luminescence, retest (AID 449756); type: functional, cell-based; conditions: Rattus norvegicus;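 further: cell death triggered by IL-1 beta plus TNF-alpha plus IFN-gamma mixture; protective hits raise ATP signal compared with cytokine alone wells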
[6] = Shn3 3'UTR reporter inhibitors, dose response, cell-based, Clone20 osteoblasts, firefly luciferase, cherry-picked (AID 624132); type: functional;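 further: firefly luciferase luminescence from reporter carrying the Shn3 3'UTR in osteoblasts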
[7] = HepG2 cell cytotoxicity, dose response, cytotoxicity control for Shn3 inhibitor project, CellTiter-Glo, cherry-picked (AID 624134); type: functional, cell-based
[8] = control 3'UTR Renilla luciferase suppression, dose response, counter-screen for Shn3 inhibitor project, cell-based, Clone20-Shn3RL, cherry-picked (AID 624133); type: functional
Fatty acid synthase [9] = target: T2, Fatty acid synthase (Homo sapiens, UniProt P49327); experiment: FAS thioesterase domain inhibitors, dose response, biochemical, endpoint fluorescence intensity, uHTS hits (AID 624327); type: functional;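 further: fluorescence from hydrolysis of an O-methyl fluorescein acyl ester substrate by the enzyme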
Fatty acid synthase [10] = target: T2, Fatty acid synthase; experiment: FAS thioesterase domain inhibitors, dose response, biochemical, kinetic fluorescence intensity (AID 624326); type: functional;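 further: rate of fluorescence rise from hydrolysis of a fluorogenic O-methyl fluorescein ester substrate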
[11] = target: T3, Carboxy-terminal domain RNA polymerase II polypeptide A small phosphatase 1 (Homo sapiens, UniProt Q9GZU7); experiment: inhibitors of CTDSP1, concentration-response testing, biochemical assay, absorbance-based, actives from ultra-high-throughput screening (AID 540297); type: functional
T3 sequence (Q9GZU7 whole entry): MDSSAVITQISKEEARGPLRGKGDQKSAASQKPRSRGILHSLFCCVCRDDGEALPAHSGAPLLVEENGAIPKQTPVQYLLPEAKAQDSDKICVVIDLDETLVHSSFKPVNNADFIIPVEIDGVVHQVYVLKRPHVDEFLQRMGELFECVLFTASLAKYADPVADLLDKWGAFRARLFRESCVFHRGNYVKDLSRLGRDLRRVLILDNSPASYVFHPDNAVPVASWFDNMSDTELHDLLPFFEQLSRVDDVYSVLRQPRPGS

[12] = target: Delta-type opioid receptor (Homo sapiens, UniProt P41143); experiment: Counterscreen for agonists of heterodimerization of the mu 1 (OPRM1) and delta 1 (OPRD1) opioid receptors: Luminescence-based cell-based high throughput dose response assay to identify agonists of OPRD1 homodimerization. [Related pubchem assays (depositor defined):AID504326, AID504355, AID504692, AID504904, AID504905]; type: functional
Mu-type opioid receptor = Mu-type opioid receptor (Homo sapiens, UniProt P35372); experiment: Counterscreen for agonists of heterodimerization of the mu 1 (OPRM1) and delta 1 (OPRD1) opioid receptors: Luminescence-based cell-based high throughput dose response assay to identify agonists of OPRM1 homodimerization.; type: functional;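 further: U2OS cells expressing OPRM1 and beta-arrestin as split beta-galactosidase partners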
[13] = target: 5-hydroxytryptamine receptor 5A (Homo sapiens, UniProt P47898); experiment: Counterscreen for agonists of OPRM1-OPRD1 heterodimerization: luminescence-based cell-based high throughput dose response assay to identify agonists of 5-hydroxytryptamine (serotonin) 5A receptor (HTR5A). [Related pubchem assays (depositor defined):AID504326, AID504355, AID504692, AID504904, AID504905]; type: functional
[14] = target: T4, Apoptotic protease-activating factor 1 (Homo sapiens, UniProt O14727); type: functional
T4 sequence (O14727 whole entry): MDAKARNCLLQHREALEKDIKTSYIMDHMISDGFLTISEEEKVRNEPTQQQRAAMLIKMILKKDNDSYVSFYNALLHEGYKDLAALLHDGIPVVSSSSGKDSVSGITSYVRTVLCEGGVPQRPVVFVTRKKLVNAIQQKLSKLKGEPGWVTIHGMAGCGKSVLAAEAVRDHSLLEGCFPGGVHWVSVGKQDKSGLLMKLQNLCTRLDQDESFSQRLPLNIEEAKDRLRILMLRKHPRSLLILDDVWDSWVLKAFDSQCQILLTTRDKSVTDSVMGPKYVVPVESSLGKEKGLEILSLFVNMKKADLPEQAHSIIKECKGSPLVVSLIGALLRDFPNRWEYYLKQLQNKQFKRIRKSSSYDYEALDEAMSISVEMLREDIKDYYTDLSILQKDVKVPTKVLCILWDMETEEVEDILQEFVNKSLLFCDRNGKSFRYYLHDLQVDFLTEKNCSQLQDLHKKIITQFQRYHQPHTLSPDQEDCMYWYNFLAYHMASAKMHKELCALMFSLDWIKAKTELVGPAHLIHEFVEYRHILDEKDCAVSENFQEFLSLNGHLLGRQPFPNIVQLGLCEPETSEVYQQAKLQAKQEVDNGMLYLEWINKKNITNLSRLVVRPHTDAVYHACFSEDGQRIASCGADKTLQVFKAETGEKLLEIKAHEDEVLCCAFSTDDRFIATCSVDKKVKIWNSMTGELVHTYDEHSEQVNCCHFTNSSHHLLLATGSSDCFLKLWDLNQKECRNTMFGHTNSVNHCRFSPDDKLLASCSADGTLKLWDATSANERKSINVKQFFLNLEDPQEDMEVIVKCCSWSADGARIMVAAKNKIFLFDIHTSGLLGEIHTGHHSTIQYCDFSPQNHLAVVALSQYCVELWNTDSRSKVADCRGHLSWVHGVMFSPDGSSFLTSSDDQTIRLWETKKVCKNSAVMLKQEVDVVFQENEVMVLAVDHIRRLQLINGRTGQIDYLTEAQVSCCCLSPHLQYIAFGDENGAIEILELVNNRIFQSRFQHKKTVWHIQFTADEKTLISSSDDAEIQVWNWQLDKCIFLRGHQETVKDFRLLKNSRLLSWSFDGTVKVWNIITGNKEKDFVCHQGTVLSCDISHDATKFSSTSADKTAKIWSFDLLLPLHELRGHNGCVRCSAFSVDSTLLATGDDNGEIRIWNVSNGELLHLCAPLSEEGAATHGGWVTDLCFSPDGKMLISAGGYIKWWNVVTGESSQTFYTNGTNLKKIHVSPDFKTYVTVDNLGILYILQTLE

[15] = target: T5, Short transient receptor potential channel 4 (Mus musculus, UniProt Q9QUQ5); experiment: mouse TRPC4 channel inhibitors, dose response, cell-based, HEK293 TRPC4/mu-opioid, Fluo-4 calcium (AID 434942); type: functional;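 further: potency of inhibitors blocking the TRPC4 calcium response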
T5 sequence (Q9QUQ5 whole entry): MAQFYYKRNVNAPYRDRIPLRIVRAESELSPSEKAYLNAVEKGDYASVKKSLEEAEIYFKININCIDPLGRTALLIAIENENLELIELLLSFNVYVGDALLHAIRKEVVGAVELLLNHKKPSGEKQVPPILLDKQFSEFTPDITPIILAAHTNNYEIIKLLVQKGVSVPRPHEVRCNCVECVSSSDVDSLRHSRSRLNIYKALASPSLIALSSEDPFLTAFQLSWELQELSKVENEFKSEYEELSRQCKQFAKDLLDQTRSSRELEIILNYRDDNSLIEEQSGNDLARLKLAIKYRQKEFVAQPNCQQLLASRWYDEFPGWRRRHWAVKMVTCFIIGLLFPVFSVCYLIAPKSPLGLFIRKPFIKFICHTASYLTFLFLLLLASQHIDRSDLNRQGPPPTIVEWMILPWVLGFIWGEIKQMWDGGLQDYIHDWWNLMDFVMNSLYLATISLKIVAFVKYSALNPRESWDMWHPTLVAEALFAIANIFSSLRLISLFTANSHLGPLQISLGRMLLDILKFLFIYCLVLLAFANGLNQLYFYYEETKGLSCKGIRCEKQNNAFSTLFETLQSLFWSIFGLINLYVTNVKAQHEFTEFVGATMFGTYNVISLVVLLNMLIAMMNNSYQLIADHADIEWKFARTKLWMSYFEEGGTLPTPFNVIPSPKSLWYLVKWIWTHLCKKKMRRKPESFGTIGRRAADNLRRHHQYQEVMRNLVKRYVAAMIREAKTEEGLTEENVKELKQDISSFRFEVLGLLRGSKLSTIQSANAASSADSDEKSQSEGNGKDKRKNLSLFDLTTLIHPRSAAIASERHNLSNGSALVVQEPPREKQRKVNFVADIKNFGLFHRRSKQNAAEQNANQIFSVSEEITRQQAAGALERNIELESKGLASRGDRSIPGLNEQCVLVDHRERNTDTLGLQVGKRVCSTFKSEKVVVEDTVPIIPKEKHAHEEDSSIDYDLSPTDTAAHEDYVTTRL

[16] = target: T5, Short transient receptor potential channel 4; experiment: mouse TRPC4 channel activators, dose response, cell-based, HEK293 TRPC4/mu-opioid, Fluo-4 calcium (AID 434937); type: functional

Sequence of 5-hydroxytryptamine receptor 5A (P47898 whole entry): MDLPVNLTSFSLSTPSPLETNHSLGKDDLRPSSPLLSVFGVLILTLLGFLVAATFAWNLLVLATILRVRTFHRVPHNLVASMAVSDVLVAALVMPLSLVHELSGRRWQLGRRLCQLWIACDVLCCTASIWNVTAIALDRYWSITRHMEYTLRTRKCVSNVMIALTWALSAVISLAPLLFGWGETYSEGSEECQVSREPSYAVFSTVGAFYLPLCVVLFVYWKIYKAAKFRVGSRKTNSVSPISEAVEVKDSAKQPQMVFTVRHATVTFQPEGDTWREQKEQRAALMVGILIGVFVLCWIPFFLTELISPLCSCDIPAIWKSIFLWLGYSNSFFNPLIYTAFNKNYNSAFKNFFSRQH
Sequence of Delta-type opioid receptor (P41143 whole entry): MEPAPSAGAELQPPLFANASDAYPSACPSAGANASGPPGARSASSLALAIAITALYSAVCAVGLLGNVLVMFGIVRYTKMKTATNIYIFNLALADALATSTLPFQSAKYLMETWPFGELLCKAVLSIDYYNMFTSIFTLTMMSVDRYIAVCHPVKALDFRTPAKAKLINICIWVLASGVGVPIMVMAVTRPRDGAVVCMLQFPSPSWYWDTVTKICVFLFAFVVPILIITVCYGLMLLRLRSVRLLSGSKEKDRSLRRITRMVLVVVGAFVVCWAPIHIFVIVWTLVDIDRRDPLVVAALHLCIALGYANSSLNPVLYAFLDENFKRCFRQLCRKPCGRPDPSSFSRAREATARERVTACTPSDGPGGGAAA
Sequence of Mu-type opioid receptor (P35372 whole entry): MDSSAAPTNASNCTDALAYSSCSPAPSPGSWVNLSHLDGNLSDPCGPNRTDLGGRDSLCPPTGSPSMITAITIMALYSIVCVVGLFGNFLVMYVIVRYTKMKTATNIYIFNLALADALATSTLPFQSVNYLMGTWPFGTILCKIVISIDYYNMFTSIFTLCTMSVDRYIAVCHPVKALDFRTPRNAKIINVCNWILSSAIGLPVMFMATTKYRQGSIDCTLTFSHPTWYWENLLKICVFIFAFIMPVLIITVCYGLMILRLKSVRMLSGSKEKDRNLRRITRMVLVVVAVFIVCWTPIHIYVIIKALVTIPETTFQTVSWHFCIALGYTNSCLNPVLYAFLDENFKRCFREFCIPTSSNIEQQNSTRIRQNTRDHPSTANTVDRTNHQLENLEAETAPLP
T2 sequence (P49327 whole entry, the tested form may be a part): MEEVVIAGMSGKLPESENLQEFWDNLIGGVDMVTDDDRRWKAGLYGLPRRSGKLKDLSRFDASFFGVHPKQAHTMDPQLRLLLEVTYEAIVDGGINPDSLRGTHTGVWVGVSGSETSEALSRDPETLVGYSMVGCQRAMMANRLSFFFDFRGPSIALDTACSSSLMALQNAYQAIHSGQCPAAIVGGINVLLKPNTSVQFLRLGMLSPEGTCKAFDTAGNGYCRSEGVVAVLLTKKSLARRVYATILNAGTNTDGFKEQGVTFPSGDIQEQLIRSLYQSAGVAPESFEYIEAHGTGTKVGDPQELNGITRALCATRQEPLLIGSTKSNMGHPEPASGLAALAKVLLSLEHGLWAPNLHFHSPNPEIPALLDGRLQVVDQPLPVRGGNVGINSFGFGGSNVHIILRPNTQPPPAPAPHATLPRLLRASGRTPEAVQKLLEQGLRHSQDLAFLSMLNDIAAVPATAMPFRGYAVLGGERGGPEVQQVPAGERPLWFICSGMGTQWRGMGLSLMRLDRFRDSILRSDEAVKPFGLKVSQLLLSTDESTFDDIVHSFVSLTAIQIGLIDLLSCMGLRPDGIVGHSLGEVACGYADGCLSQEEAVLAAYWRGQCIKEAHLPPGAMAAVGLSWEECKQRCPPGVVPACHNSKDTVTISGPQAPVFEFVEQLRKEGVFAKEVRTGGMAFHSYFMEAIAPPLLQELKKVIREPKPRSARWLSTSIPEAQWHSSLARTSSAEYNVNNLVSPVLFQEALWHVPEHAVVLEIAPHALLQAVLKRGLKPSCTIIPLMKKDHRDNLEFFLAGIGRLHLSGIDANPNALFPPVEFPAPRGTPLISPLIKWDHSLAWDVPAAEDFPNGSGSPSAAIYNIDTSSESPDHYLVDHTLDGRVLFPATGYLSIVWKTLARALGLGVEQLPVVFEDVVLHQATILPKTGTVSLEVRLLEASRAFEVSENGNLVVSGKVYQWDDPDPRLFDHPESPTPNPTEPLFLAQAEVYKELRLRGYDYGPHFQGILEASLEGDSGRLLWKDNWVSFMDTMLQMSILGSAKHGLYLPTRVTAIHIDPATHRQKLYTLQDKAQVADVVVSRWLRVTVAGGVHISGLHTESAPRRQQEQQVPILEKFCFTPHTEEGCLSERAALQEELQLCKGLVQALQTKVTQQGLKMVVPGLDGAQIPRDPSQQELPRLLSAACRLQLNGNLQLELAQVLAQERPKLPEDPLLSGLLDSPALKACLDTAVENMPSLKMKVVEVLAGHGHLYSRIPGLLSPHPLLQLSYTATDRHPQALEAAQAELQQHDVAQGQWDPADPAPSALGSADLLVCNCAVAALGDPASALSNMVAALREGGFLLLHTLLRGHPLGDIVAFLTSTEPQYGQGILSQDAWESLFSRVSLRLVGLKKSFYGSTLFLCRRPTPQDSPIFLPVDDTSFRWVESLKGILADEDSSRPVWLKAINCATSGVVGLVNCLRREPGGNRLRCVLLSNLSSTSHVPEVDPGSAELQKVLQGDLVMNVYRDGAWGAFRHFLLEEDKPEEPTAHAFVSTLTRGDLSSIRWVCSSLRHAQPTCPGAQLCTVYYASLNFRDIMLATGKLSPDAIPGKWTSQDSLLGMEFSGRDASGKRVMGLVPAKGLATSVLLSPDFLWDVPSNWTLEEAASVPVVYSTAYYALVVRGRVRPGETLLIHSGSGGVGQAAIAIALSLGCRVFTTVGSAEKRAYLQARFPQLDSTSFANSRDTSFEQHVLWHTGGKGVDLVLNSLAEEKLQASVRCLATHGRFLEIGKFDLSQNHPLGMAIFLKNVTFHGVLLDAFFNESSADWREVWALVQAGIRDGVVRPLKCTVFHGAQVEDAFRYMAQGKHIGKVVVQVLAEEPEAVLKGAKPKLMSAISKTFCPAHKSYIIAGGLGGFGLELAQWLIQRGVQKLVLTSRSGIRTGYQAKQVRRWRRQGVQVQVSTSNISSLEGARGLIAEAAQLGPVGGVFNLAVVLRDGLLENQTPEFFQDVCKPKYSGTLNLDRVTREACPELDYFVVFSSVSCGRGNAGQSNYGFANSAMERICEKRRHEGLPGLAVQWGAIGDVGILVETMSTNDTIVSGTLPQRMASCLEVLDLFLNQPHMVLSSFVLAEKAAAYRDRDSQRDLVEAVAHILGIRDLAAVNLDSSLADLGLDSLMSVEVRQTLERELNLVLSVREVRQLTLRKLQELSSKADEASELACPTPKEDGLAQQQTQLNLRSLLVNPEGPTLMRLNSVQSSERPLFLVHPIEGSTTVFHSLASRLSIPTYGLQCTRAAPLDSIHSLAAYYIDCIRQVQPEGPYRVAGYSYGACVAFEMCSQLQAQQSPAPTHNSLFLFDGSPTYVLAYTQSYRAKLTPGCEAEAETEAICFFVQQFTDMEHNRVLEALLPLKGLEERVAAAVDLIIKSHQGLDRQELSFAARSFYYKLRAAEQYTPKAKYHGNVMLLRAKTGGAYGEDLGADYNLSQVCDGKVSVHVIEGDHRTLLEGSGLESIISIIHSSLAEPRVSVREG
Sequence of Beta-galactosidase (Q8VNN2 whole entry): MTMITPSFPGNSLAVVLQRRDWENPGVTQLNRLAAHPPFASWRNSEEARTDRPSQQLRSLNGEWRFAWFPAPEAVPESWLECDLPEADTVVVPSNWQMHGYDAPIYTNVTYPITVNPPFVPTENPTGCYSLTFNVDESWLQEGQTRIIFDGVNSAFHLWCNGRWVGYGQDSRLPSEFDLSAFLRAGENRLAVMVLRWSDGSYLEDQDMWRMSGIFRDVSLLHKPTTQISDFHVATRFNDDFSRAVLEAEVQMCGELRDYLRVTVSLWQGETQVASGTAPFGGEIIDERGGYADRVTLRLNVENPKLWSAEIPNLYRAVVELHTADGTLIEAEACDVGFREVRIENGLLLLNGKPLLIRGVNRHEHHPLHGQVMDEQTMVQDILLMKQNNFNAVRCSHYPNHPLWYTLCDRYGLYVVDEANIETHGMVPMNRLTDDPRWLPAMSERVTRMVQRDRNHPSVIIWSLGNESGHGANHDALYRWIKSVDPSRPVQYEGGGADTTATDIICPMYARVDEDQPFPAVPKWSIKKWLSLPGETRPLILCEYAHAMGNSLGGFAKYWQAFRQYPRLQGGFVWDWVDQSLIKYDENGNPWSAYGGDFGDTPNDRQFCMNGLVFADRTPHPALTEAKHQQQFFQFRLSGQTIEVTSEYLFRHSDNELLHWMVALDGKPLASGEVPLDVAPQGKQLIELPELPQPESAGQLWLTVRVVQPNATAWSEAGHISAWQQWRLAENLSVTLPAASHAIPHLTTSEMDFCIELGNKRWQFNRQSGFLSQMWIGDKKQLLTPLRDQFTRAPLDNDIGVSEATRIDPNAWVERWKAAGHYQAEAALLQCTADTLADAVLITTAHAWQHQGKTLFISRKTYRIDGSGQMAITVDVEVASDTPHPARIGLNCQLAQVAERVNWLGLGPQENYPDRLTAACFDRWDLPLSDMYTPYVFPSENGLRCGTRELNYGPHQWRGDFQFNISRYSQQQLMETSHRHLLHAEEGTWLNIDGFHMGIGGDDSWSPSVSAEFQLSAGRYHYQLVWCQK

c1ccc(C2=NN(c3ccccc3)CC2)cc1
EC50 [1]: 0.11 µM (active) | EC50 [2]: 0.187 µM (active) | EC50 (H4): > 120 µM (not active) | EC50 [3]: > 112 µM (not active) | EC50 [4]: > 112 µM (not active) | AC50 (HeLa): 85.4 µM (active)

CN(c1ccccc1)S(=O)(=O)c1ccc(NC(=O)c2nc(S(C)(=O)=O)ncc2Cl)cc1
EC50 (Beta-galactosidase): > 40 µM (inactive) | IC50 [5]: 3.14 µM (active) | IC50 (CHO): 2.03 µM (active) | AC50 (INS1): 5.65 µM (active) | AC50 [6]: 0.502 µM (active) | AC50 [7]: 10.5 µM (active) | AC50 [8]: 2.77 µM (active) | IC50 (Fatty acid synthase [9]): 5.88 µM (active) | IC50 (Fatty acid synthase [10]): 5.01 µM (active)

CCCn1ncc2c(Nc3ccc(C)c(C)c3)ncnc21
AC50 (HeLa): 39.8 µM (active)

Nn1c(SCC(=O)NC(=O)NCc2ccco2)nnc1-c1ccc(OC(F)F)cc1
IC50 [11]: 3.75 µM (active)

CCc1ccc(NC(=O)c2cc(-c3cccs3)on2)cc1
AC50 (HeLa): 160 µM (active)

Cc1ccc(OCC(=O)Nc2ccc(NC(=O)c3cccs3)cc2)c(C)c1
EC50 [12]: > 92.5 µM (inactive) | EC50 (Mu-type opioid receptor): > 92.5 µM (inactive) | EC50 [13]: > 92.5 µM (inactive)

CC(C)CC[n+]1ccn(C2=C([N-]S(=O)(=O)c3ccccc3)C(=O)c3ccccc3C2=O)c1
IC50 [14]: 12.9 µM (active)

Cc1ccc(C2(O)C[N+](c3ccccc3)=C3SCCN32)cc1 (stereo not drawn)
EC50 [15]: 0.237 µM (active) | EC50 [16]: 0.596 µM (active) | EC50 [12]: > 92.5 µM (inactive) | EC50 (Mu-type opioid receptor): 48.2 µM (inactive) | EC50 [13]: > 92.5 µM (inactive)

Cc1ccc(Cl)cc1N1CCN(C(=O)CN(c2ccccc2)S(=O)(=O)N(C)C)CC1
IC50 [11]: 5.49 µM (active)

Cc1cc(=O)oc2cc(NC(=O)C3COc4ccccc4O3)ccc12 (stereo not drawn)
EC50 [12]: > 92.5 µM (inactive) | EC50 (Mu-type opioid receptor): > 92.5 µM (inactive) | EC50 [13]: > 92.5 µM (inactive)

COc1ccc(C(CNC(=O)c2cncc(Br)c2)N(C)C)cc1 (stereo not drawn)
EC50 [12]: 26.9 µM (inactive) | EC50 (Mu-type opioid receptor): 18.5 µM (inactive) | EC50 [13]: > 92.5 µM (inactive)

Oc1ccc(Br)cc1/C=N/N1CCCCC1
EC50 [1]: 4.76 µM (active) | EC50 [2]: > 120 µM (not active) | EC50 (H4): > 120 µM (not active) | AC50 (HeLa): 41.4 µM (active)

From ChEMBL document CHEMBL1201862, “PubChem BioAssay data set” (2004)
